One assay has as its target T1, JAK3 (Homo sapiens, UniProt P52333).
T1 construct: endogenous in cells; host or cells: Mixed Molt4/Ramos lysate (1:2)
T1 sequence (P52333 1-1124): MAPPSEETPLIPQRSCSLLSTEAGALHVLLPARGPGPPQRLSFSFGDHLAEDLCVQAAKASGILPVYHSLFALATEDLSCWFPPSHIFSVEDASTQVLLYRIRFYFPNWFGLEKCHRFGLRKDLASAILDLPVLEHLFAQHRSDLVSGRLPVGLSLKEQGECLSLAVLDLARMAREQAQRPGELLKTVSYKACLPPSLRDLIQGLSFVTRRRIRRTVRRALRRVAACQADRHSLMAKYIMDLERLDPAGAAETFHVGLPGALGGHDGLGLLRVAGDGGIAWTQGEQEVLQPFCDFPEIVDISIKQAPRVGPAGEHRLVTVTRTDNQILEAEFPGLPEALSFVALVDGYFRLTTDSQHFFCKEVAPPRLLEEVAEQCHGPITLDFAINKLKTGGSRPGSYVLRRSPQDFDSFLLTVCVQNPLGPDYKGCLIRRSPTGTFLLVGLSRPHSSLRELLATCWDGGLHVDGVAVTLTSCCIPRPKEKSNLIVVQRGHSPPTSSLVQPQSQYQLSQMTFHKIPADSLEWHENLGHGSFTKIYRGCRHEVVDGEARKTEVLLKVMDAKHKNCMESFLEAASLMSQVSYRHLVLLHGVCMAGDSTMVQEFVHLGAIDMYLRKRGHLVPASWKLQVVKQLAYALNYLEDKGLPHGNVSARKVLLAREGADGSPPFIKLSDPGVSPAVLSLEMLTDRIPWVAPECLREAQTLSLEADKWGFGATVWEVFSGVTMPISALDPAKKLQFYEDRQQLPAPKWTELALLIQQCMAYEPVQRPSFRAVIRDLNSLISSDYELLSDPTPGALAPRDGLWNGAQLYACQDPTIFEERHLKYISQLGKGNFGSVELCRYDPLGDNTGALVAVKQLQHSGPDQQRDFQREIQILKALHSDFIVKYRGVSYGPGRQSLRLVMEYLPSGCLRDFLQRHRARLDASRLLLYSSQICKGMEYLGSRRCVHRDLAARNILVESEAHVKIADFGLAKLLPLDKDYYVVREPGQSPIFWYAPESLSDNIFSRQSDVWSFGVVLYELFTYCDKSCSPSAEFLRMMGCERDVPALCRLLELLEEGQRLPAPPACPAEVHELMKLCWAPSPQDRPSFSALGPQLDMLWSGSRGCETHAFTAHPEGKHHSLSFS
Briefly: Kinobeads assay, JAK3. The format is binding. To be noted: mixed Molt4/Ramos cell lysate, dot blot detection. In a few lines: (§1)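 Competition pulldown: compound dilution series incubated 3 h in cold room with immobilized aminopyrido-pyrimidine beads and mixed Molt4/Ramos lysate (1:2, 10 mg/mL protein) in DP buffer pH 7.4 with NP40. Bead-bound JAK2/JAK3 eluted, quantified by antibody dot blot with infrared detection; IC50 from dose-response curves.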

The target in the next assay is T2, JAK2 (Homo sapiens, UniProt O60674).
T2 construct: endogenous in cells; host or cells: Mixed Molt4/Ramos lysate (1:2)
T2 sequence (O60674 whole entry): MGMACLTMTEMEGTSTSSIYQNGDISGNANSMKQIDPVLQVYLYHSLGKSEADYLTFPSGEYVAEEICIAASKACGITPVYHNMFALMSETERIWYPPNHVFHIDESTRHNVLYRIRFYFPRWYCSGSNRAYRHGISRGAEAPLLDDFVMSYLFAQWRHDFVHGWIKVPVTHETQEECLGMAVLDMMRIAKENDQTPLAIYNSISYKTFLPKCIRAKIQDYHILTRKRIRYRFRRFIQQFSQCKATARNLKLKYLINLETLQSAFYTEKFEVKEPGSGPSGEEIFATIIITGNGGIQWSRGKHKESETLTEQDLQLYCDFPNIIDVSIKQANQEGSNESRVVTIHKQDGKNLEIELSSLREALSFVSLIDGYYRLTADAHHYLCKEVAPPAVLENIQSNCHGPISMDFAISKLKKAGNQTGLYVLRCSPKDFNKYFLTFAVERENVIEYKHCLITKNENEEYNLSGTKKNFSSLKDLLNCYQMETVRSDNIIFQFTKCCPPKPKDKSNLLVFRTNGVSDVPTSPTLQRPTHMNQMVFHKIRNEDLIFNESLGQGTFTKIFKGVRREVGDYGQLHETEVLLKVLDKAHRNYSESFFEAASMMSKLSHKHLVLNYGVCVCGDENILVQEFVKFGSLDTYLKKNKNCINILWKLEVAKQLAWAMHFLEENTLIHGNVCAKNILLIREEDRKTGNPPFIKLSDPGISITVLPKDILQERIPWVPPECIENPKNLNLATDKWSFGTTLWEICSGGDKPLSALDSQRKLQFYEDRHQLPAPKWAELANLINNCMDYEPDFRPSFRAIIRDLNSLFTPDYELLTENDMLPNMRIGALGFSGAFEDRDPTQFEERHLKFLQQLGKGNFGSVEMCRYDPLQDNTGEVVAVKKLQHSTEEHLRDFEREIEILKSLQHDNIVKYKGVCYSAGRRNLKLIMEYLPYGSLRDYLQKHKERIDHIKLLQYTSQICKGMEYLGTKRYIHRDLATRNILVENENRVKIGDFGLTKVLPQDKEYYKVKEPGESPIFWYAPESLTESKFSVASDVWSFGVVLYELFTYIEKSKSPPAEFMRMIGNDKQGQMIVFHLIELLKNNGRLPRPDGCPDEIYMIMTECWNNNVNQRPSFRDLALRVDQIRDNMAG
Briefly: Kinobeads assay, JAK2. The settings on record: mixed Molt4/Ramos cell lysate, dot blot detection. It counts as binding. An outline of the steps:
as §1

The results in this text go back to US9242987B2, “Heterocyclyl pyrazolopyrimidine analogues as JAK inhibitors” (Cellzome Limited, priority 2009, dated 2016).

Regarding `Cn1cc(Nc2ncc3cnn(Cc4cc(F)cc(F)c4)c3n2)cn1` [Example 79, 1-(3,5-Difluorobenzyl)-N-(1-methyl-1H-pyrazol-4-yl)-1H-pyrazolo[3,4-d]pyrimidin-6-amine], the IC50 (in general, the concentration needed to halve the response being measured) against JAK3 is under 100 nM; at JAK2, 100 to 1000 nM.
The corresponding values for `Cn1cc(Nc2ncc3cnn(Cc4cccc(C(N)=O)c4)c3n2)cn1` [Example 80, 3-((6-((1-Methyl-1H-pyrazol-4-yl)amino)-1H-pyrazolo[3,4-d]pyrimidin-1-yl)methyl)benzamide] are under 100 nM and 1000 to 10000 nM.
The corresponding values for `Cn1cc(Nc2ncc3cnn(CCc4cccc(F)c4)c3n2)cn1` [Example 81, 1-(3-Fluorophenethyl)-N-(1-methyl-1H-pyrazol-4-yl)-1H-pyrazolo[3,4-d]pyrimidin-6-amine] are 100 to 1000 nM and 1000 to 10000 nM.
The matching figures for `Cn1cc(Nc2ncc3cnn(CCc4ccc(F)cc4)c3n2)cn1` [Example 82, 1-(4-Fluorophenethyl)-N-(1-methyl-1H-pyrazol-4-yl)-1H-pyrazolo[3,4-d]pyrimidin-6-amine]: 100 to 1000 nM and 1000 to 10000 nM.
For the compound `Cc1cccc(Cn2ncc3cnc(Nc4cnn(C)c4)nc32)c1` [Example 83, N-(1-Methyl-1H-pyrazol-4-yl)-1-(3-methylbenzyl)-1H-pyrazolo[3,4-d]pyrimidin-6-amine], the half-inhibitory concentration (IC50) was under 100 nM on JAK3 and 1000 to 10000 nM on JAK2.
The corresponding values for `Cc1ccccc1Cn1ncc2cnc(Nc3cnn(C)c3)nc21` [Example 84, N-(1-Methyl-1H-pyrazol-4-yl)-1-(2-methylbenzyl)-1H-pyrazolo[3,4-d]pyrimidin-6-amine] are under 100 nM and 1000 to 10000 nM.
Take `Cn1cc(Nc2ncc3cnn(Cc4ccccc4OC(F)(F)F)c3n2)cn1` [Example 85, N-(1-Methyl-1H-pyrazol-4-yl)-1-(2-(trifluoromethoxy)benzyl)-1H-pyrazolo[3,4-d]pyrimidin-6-amine]: the IC50 was under 100 nM at JAK3 and 1000 to 10000 nM on JAK2.
The matching figures for `Cn1cc(Nc2ncc3cnn(Cc4cccc(OC(F)(F)F)c4)c3n2)cn1` [Example 86, N-(1-Methyl-1H-pyrazol-4-yl)-1-(3-(trifluoromethoxy)benzyl)-1H-pyrazolo[3,4-d]pyrimidin-6-amine]: 100 to 1000 nM and at least 10000 nM.
For `COc1ccccc1Cn1ncc2cnc(Nc3cnn(C)c3)nc21` [Example 87, 1-(2-Methoxybenzyl)-N-(1-methyl-1H-pyrazol-4-yl)-1H-pyrazolo[3,4-d]pyrimidin-6-amine], the half-maximal inhibitory concentration (IC50) was under 100 nM against JAK3 and 1000 to 10000 nM at JAK2.
The corresponding values for `Fc1ccccc1Cn1ncc2cnc(Nc3cn[nH]c3)nc21` [Example 88, 1-(2-Fluorobenzyl)-N-(1H-pyrazol-4-yl)-1H-pyrazolo[3,4-d]pyrimidin-6-amine] are under 100 nM and 1000 to 10000 nM.
The matching figures for `CC(O)Cn1cc(Nc2ncc3cnn(Cc4ccccc4F)c3n2)cn1` (centres unmarked) [Example 89, 1-(4-((1-(2-Fluorobenzyl)-1H-pyrazolo[3,4-d]pyrimidin-6-yl)amino)-1H-pyrazol-1-yl)propan-2-ol]: under 100 nM and 100 to 1000 nM.
The matching figures for `COc1cccc(F)c1Cn1ncc2cnc(Nc3cnn(C)c3)nc21` [Example 90, 1-(2-Fluoro-6-methoxybenzyl)-N-(1-methyl-1H-pyrazol-4-yl)-1H-pyrazolo[3,4-d]pyrimidin-6-amine]: under 100 nM and 100 to 1000 nM.
`COc1ccc(F)cc1Cn1ncc2cnc(Nc3cnn(C)c3)nc21` [Example 91, 1-(5-Fluoro-2-methoxybenzyl)-N-(1-methyl-1H-pyrazol-4-yl)-1H-pyrazolo[3,4-d]pyrimidin-6-amine]: the IC50 on JAK3 was under 100 nM; at JAK2 it was 100 to 1000 nM.
The matching figures for `Cn1cc(Nc2ncc3cnn(Cc4ccccc4CO)c3n2)cn1` [Example 92, (2-((6-((1-Methyl-1H-pyrazol-4-yl)amino)-1H-pyrazolo[3,4-d]pyrimidin-1-yl)methyl)phenyl)methanol]: under 100 nM and 1000 to 10000 nM.
The corresponding values for `COc1cccc(Cn2ncc3cnc(Nc4cnn(C)c4)nc32)c1F` [Example 93, 1-(2-Fluoro-3-methoxybenzyl)-N-(1-methyl-1H-pyrazol-4-yl)-1H-pyrazolo[3,4-d]pyrimidin-6-amine] are 100 to 1000 nM and at least 10000 nM.
The corresponding values for `COc1ccc(F)c(Cn2ncc3cnc(Nc4cnn(C)c4)nc32)c1` [Example 94, 1-(2-Fluoro-5-methoxybenzyl)-N-(1-methyl-1H-pyrazol-4-yl)-1H-pyrazolo[3,4-d]pyrimidin-6-amine] are under 100 nM and 1000 to 10000 nM.
On to `CC(=O)n1cc(Nc2ncc3cnn(Cc4ccccc4F)c3n2)cn1` [Example 95, 1-(4-((1-(2-Fluorobenzyl)-1H-pyrazolo[3,4-d]pyrimidin-6-yl)amino)-1H-pyrazol-1-yl)ethanone], for which the figures for the IC50 on JAK3 and on JAK2 were under 100 nM and 1000 to 10000 nM, respectively.
The matching figures for `CS(=O)(=O)n1cc(Nc2ncc3cnn(Cc4ccccc4F)c3n2)cn1` [Example 96, 1-(2-Fluorobenzyl)-N-(1-(methylsulfonyl)-1H-pyrazol-4-yl)-1H-pyrazolo[3,4-d]pyrimidin-6-amine]: 100 to 1000 nM and at least 10000 nM.
The matching figures for `Fc1ccccc1Cn1ncc2cnc(Nc3c[nH]nc3Cl)nc21` [Example 97, N-(3-Chloro-1H-pyrazol-4-yl)-1-(2-fluorobenzyl)-1H-pyrazolo[3,4-d]pyrimidin-6-amine]: 100 to 1000 nM and at least 10000 nM.
Regarding `Cn1cc(Nc2ncc3cnn(Cc4c(F)ccc(F)c4F)c3n2)cn1` [Example 98, N-(1-Methyl-1H-pyrazol-4-yl)-1-(2,3,6-trifluorobenzyl)-1H-pyrazolo[3,4-d]pyrimidin-6-amine], the IC50 was under 100 nM against JAK3 and 100 to 1000 nM at JAK2.
The corresponding values for `Cn1cc(Nc2ncc3cnn(Cc4ccc(F)cc4)c3n2)cn1` [Example 99, 1-(4-Fluorobenzyl)-N-(1-methyl-1H-pyrazol-4-yl)-1H-pyrazolo[3,4-d]pyrimidin-6-amine] are 100 to 1000 nM and at least 10000 nM.
The corresponding values for `CC(C)c1cccc(Cn2ncc3cnc(Nc4cnn(C)c4)nc32)c1` [Example 100, 1-(3-Isopropylbenzyl)-N-(1-methyl-1H-pyrazol-4-yl)-1H-pyrazolo[3,4-d]pyrimidin-6-amine] are 100 to 1000 nM and at least 10000 nM.
The corresponding values for `CC(C)c1ccccc1Cn1ncc2cnc(Nc3cnn(C)c3)nc21` [Example 101, 1-(2-Isopropylbenzyl)-N-(1-methyl-1H-pyrazol-4-yl)-1H-pyrazolo[3,4-d]pyrimidin-6-amine] are 100 to 1000 nM and 1000 to 10000 nM.
Consider `COCCOc1ccccc1Cn1ncc2cnc(Nc3cnn(C)c3)nc21` [Example 102, 1-(2-(2-Methoxyethoxy)benzyl)-N-(1-methyl-1H-pyrazol-4-yl)-1H-pyrazolo[3,4-d]pyrimidin-6-amine], for which the IC50 against JAK3 fell in the range of 100 to 1000 nM; at JAK2, 1000 to 10000 nM.
The corresponding values for `NC(=O)n1cc(Nc2ncc3cnn(Cc4ccccc4F)c3n2)cn1` [Example 103, 4-((1-(2-Fluorobenzyl)-1H-pyrazolo[3,4-d]pyrimidin-6-yl)amino)-1H-pyrazole-1-carboxamide] are 100 to 1000 nM and 1000 to 10000 nM.
Turning to `COc1cc(F)cc(Cn2ncc3cnc(Nc4cnn(C)c4)nc32)c1` [Example 104, 1-(3-Fluoro-5-methoxybenzyl)-N-(1-methyl-1H-pyrazol-4-yl)-1H-pyrazolo[3,4-d]pyrimidin-6-amine], the figures for the half-inhibitory concentration (IC50) against JAK3 and against JAK2 were under 100 nM and 100 to 1000 nM, respectively.
The corresponding values for `COc1nn(C)cc1Nc1ncc2cnn(Cc3ccccc3)c2n1` [Example 105, 1-Benzyl-N-(3-methoxy-1-methyl-1H-pyrazol-4-yl)-1H-pyrazolo[3,4-d]pyrimidin-6-amine] are under 100 nM and at least 10000 nM.
As for `COc1nn(CCO)cc1Nc1ncc2cnn(Cc3ccccc3)c2n1` [Example 106, 2-(4-((1-Benzyl-1H-pyrazolo[3,4-d]pyrimidin-6-yl)amino)-3-methoxy-1H-pyrazol-1-yl)ethanol], the results for the IC50 at JAK3 and against JAK2 were under 100 nM and 1000 to 10000 nM, respectively.
